# According to publication PMC2365101, “Anti-Inflammatory Activity of (Polyphenolic)-Sulfonates and Their Sodium Salts in Rodents” (Metal-Based Drugs, 1998):
# pIC50: −log10 of the molar value.
# What was measured:
# [1] = test system: CF1 male mice, carrageenan induced edema; test: Anti-inflammatory screen in mice (carrageenan induced foot edema); type: in vivo; conditions: for Percent of Control (induced edema): CF1 male mice, N=6
# Text: Few reports in the literature indicate interaction at these receptor sites other than by peptides or antibodies. […] Blocking these receptors is desirable because the entire inflammation cascade of events is triggered by the early release of TNFa and IL-1. […] Radioisotopes were obtained from New England Nuclear [Dupont, Boston, MA] and substrates and co- factors were obtained from Sigma Chemical Co. [St. Louis, MO]. […] Cell lines were obtained from American Type Culture Collection [Rockville, MD]. In Vivo Tests Anti-inflammatory screen in mice: Male CF male mice weighing 28-32g obtained from Jackson Lab. […] Evaluation of the induced edema was made by injecting 2% carrageenan in 0.9% saline into the plantar region of the foot. The opposite foot injected with 0.9% isotonic saline was used as a base line. […] Salmonella abortus equi [Lot # 69F4003] […] Drugs from 2 to 16 mg/kg, I.P. were administered 2 hr prior and 2 hr post-injection of the LPS and then subsequently for every 24 hr for the length ofthe animals' lives. Deaths were recorded every 12 hr and continued for 96 hr. […] In vitro TNFa andIL-1 Measurements and Cellular Regulation IC-21 mouse macrophages were maintained in RPMI-1640 + 10% FCS + P/S. After the cells had grown to confluency, E. coli LPS at 10 Ixg/ml was added to the medium. Agents were incubated at 12.5 to 100 µM final concentration for 18 hr. The medium (100 btl) was collected for TNFCt determinations. Interleukin-1 [IL-1] release was determined using P388D1 cells which were maintained in RPMI-1640 + 10% FCS + P/S. The L929 bioassay was used to quantitate the TNF and the IL-1 levels. The L929 mouse fibroblasts were grown in DMEM + 10% FCS + P/S to confluency in 96 well plates and incubated with 100 tl ofmedium from […] or P388D cells after 18 hr. The cells were stained with 0.2% crystal violet in 20% MeOH and read at 580 nm using a Molecular Devices scanner (SOFT-max program). High Affinity Binding to Receptors on L929-106 Cells Two laCi of 125I-TNFct (human recombinant, 30 mCi/tg New England Nuclear) or 125I-IL-1 (70-120[.t Ci/lxg,New England Nuclear) was added to confluency L929 cells for 90 min or 5 hr, respectively with 25, 50 and 100 tM of the test compounds 12]. The cells were washed repeatedly with isotonic saline, pH.7.2 and aliquots counted. Prostaglandin cylcooxygenase activity Mouse J774AI macrophages maintained in Dulbecco's modified Eagle's medium + 15% FCS + P/S. Cells (5 x 106) were incubated with agents (5 to 100 ].tM final concentration) and 3H-arachidonic acid (100 Ci/mol) for 60 min at 37C in a CO2 incubator. The reaction was terminated with 2N HCI, the mixture extracted 2 X with ether, and the organic layer evaporated.
# [2] = target: J774-A1 macrophage elastase; test: Elastase activity in J774-A1 macrophages; type: biochemical, mouse
# [3] = test system: IL-8 high affinity receptor on chinese hamster ovarian carcinoma K-1 cells; test: 125I-IL-8 high affinity binding to chinese hamster ovarian carcinoma K-1 cells; conditions: for 125I-IL-8 binding, Percent of Control: N=6
# [4] = test system: IL-1 release from P388D1 macrophages; test: IL-1 release from P388D1 macrophages (L929 bioassay); type: cell-based, mouse; conditions: 5 μM, over 18 hours, N=6
Compound,"Percent of Control (induced edema) ([1]; 8 mg/Kg X 2, I.P.)","Percent of Control (induced edema) ([1]; 16 mg/Kg X 2, I.P.)",pIC50 ([2]; 60 min),"pIC50 ([2]; 60 min, listed as #8)",pIC50 ([2]; 120 min),"125I-IL-8 binding, Percent of Control ([3]; 50 μM, 5 Hours)","125I-IL-8 binding, Percent of Control ([3]; 50 μM, 24 Hours)","reduction of IL-8 high affinity binding ([3]; 50 μM, 5 hr)","125I-IL-8 binding, Percent of Control ([3]; 100 μM, 24 Hours)",reduction of IL-8 high affinity binding ([3]; 24 hr),"IL-1 release, Percent of Control [4]",reduction of edema ([1]; 16 mg/kg X 2),IC50 Elastase J774-A1 ([2]; 120 min),reduction of IL-8 high affinity binding ([3]; at 5 hr and 24 hr)
CC(=O)Oc1c2cc(S(=O)(=O)[O-])cc1Cc1cc(S(=O)(=O)[O-])cc(c1OC(C)=O)Cc1cc(S(=O)(=O)[O-])cc(c1OC(C)=O)Cc1cc(S(=O)(=O)[O-])cc(c1OC(C)=O)Cc1cc(S(=O)(=O)[O-])cc(c1OC(C)=O)Cc1cc(S(=O)(=O)[O-])cc(c1OC(C)=O)Cc1cc(S(=O)(=O)[O-])cc(c1OC(C)=O)Cc1cc(S(=O)(=O)[O-])cc(c1OC(C)=O)C2.[Na+].[Na+].[Na+].[Na+].[Na+].[Na+].[Na+].[Na+] [Compound 8],70 + 6% of Control,38+3% of Control,4.52 to 5.00,4.61,3.46,79 + 4% of Control,58 + 7% of Control,21-23%,51 + 6% of Control,greater than 40%,75+ 5% of Control,,,
COc1c2cc(S(=O)(=O)[O-])cc1Cc1cc(S(=O)(=O)[O-])cc(c1OC)Cc1cc(S(=O)(=O)[O-])cc(c1OC)Cc1cc(S(=O)(=O)[O-])cc(c1OC)Cc1cc(S(=O)(=O)[O-])cc(c1OC)Cc1cc(S(=O)(=O)[O-])cc(c1OC)C2.[Na+].[Na+].[Na+].[Na+].[Na+].[Na+] [Compound 6],,48+3% of Control,,,,54 + 5% of Control,65 + 7% of Control,,55 + 4% of Control,,13 + 3% of Control,greater than 40%,Increased,~45%
"Pentosan sulfate [Pentosan polysulfate, reference compound]",,49+4% of Control,,,,79 + 6% of Control,51 + 6% of Control,21-23%,47 + 8% of Control,greater than 40%,,,Increased,
